Experimental data: publication PMC6752049 (Insect biochemistry and molecular biology, 2019)

Experiments:
Assay in all cases: two-electrode voltage clamp, Xenopus oocytes
Assay type in all cases: cell-based
AgamOR40 = target: T1, AgamOR40 (Anopheles gambiae, UniProt Q7PR01); conditions: 0.01-1 mM; -80 mV, pH 7.4; inward current (agonist)
T1 sequence (Q7PR01 1-454): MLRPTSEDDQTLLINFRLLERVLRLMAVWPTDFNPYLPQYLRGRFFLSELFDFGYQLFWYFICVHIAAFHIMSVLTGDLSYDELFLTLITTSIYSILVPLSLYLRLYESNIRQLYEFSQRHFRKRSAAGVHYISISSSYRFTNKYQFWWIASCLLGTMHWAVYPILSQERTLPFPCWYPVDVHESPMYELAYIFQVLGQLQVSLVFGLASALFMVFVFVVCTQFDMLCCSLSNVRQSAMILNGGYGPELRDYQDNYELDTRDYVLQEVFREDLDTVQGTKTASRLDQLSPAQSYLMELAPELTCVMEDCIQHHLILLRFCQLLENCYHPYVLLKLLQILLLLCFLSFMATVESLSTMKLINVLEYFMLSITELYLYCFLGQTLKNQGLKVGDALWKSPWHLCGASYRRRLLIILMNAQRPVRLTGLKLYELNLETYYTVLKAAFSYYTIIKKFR
T1 sequence (Q7QCC7 1-478 partner): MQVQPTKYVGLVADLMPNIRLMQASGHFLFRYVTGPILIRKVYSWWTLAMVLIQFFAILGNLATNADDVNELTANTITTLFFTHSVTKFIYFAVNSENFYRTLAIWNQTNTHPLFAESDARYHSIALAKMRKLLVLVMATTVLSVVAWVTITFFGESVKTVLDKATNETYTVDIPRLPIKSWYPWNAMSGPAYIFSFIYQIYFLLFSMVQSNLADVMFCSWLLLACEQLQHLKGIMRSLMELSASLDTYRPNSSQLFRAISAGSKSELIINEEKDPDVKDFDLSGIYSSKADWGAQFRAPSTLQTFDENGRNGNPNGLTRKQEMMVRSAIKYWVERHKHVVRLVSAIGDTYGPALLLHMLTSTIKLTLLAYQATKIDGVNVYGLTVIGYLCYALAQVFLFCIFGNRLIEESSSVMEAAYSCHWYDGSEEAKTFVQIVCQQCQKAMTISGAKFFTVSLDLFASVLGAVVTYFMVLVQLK

AgamOR8 = target: T2, AgamOR8 (Anopheles gambiae, UniProt Q7PUT5); conditions: 0.1 uM to 0.1 mM; -80 mV, pH 7.4; inward current (agonist)
T2 sequence (Q7PUT5 1-399): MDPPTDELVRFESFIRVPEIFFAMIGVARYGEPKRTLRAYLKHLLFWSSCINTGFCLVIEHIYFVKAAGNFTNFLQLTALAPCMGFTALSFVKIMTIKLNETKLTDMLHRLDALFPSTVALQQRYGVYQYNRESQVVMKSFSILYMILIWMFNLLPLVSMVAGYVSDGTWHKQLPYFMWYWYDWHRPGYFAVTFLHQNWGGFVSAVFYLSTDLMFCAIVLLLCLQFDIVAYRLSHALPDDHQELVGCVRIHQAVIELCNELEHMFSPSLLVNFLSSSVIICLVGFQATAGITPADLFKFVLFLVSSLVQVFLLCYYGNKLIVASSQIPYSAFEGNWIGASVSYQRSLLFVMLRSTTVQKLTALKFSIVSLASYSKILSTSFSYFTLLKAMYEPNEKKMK
T2 sequence (Q7QCC7 1-478 partner): T1 sequence (Q7QCC7 1-478 partner)

AgamOR10/AgamOrco = target: T3, AgamOR10/AgamOrco (Anopheles gambiae, UniProt B5U0U7); conditions: 0.01-1 mM; -80 mV, pH 7.4; outward (inhibitory) current
T3 sequence (B5U0U7 1-375): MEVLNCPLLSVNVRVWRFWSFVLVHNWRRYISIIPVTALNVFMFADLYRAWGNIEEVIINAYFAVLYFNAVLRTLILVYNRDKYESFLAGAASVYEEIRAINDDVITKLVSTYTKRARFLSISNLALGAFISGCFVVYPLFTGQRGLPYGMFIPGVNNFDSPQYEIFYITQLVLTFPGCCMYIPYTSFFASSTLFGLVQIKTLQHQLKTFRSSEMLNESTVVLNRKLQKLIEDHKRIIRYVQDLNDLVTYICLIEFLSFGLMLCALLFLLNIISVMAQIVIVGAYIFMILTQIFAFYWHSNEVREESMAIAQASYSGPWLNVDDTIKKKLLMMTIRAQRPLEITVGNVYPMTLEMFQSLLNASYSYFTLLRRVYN
T3 sequence (Q7QCC7 1-478 partner): T1 sequence (Q7QCC7 1-478 partner)

SMILES | two-electrode voltage clamp, Xenopus oocytes (AgamOR40) | also measured
CCN(CC)C(=O)c1cccc(C)c1 [DEET] | generated dose-dependent inward currents in response to DEET as well as to its best ligand, fenchone | –
C=CC(O)CCCCC (stereo not shown) [1-octen-3-ol] | – | two-electrode voltage clamp, Xenopus oocytes (AgamOR8): generated robust, dose-dependent inward currents in response to 1-octen-3-ol
CC12CCC(C1)C(C)(C)C2=O (stereo not shown) [fenchone] | generated dose-dependent inward currents in response to DEET as well as to its best ligand, fenchone | –
CC/C=C\C[C@H]1C(=O)CC[C@@H]1CC(=O)OC [BDR-4, methyl jasmonate] | – | two-electrode voltage clamp, Xenopus oocytes (AgamOR10/AgamOrco): The strongest outward currents were obtained with BDR-4 (methyl jasmonate)
